From ChEMBL document CHEMBL4732249, “Design, synthesis and biological evaluation of 2-aminoquinazolin-4(3H)-one derivatives as potential SARS-CoV-2 and MERS-CoV treatments” (Bioorg Med Chem Lett, 2021)

Tested on: Vero
Experiment: Cytotoxicity against African green monkey Vero cells assessed as reduction of cell viability by WST-1 assay
Format: cell-based
Conditions: chlorocebus sabaeus

Structure (SMILES) | CC50 [µM]
Cc1cc(C)c2nc(Nc3cc(F)cc(F)c3)[nH]c(=O)c2c1 | > 25
CCCCNc1nc2cc(Cl)ccc2c(=O)[nH]1 | > 25
O=c1[nH]c(Nc2ccc(F)cc2)nc2cc(Cl)ccc12 | > 25
O=c1[nH]c(Nc2ccc(Cl)cc2Cl)nc2cc(Cl)ccc12 | > 25
O=c1[nH]c(Nc2ccccc2F)nc2cc(Cl)ccc12 | > 25
O=c1[nH]c(Nc2cccc(O)c2)nc2cc(Cl)ccc12 | > 25
Cc1cc(C)c2nc(Nc3cc(Cl)cc(Cl)c3)[nH]c(=O)c2c1 | > 25
O=c1[nH]c(Nc2cc(Cl)cc(Cl)c2)nc2cc(O)ccc12 | > 25
Nc1ccc2c(=O)[nH]c(Nc3cc(Cl)cc(Cl)c3)nc2c1 | > 25
O=c1[nH]c(Nc2cccc(F)c2)nc2cc(Cl)ccc12 | > 25
O=c1[nH]c(Nc2cc(O)cc(O)c2)nc2cc(Cl)ccc12 | > 25
O=c1[nH]c(Nc2cc(Cl)cc(Cl)c2)nc2cc(N3CCOCC3)ccc12 | > 25
O=c1[nH]c(N2CCCCC2)nc2cc(Cl)ccc12 | > 25
O=c1[nH]c(Nc2cc(F)cc(F)c2)nc2cc(O)ccc12 | > 25
O=c1[nH]c(Nc2cccc(C(F)(F)F)c2)nc2cc(Cl)ccc12 | > 25
COc1cccc2nc(Nc3cc(Cl)cc(Cl)c3)[nH]c(=O)c12 | > 25
N#Cc1cccc(Nc2nc3cc(Cl)ccc3c(=O)[nH]2)c1 | > 25
COc1cccc(Nc2nc3cc(Cl)ccc3c(=O)[nH]2)c1 | > 25
Nc1ccc2c(=O)[nH]c(Nc3cc(F)cc(F)c3)nc2c1 | > 25

Tested on: SARS-CoV-2
Experiment: Antiviral activity against SARS-CoV-2 infected in African green monkey Vero cells assessed as inhibition of viral infection by measuring nucleocapsid protein level by immunofluorescence microscopic analysis
Format: functional, organism-based
Conditions: Severe acute respiratory syndrome coronavirus 2, Vero

Structure (SMILES) | IC50 [µM]
Cc1cc(C)c2nc(Nc3cc(F)cc(F)c3)[nH]c(=O)c2c1 | > 25
CCCCNc1nc2cc(Cl)ccc2c(=O)[nH]1 | > 25
O=c1[nH]c(Nc2ccc(F)cc2)nc2cc(Cl)ccc12 | > 25
O=c1[nH]c(Nc2ccc(Cl)cc2Cl)nc2cc(Cl)ccc12 | > 25
O=c1[nH]c(Nc2ccccc2F)nc2cc(Cl)ccc12 | > 25
O=c1[nH]c(Nc2cccc(O)c2)nc2cc(Cl)ccc12 | > 25
Cc1cc(C)c2nc(Nc3cc(Cl)cc(Cl)c3)[nH]c(=O)c2c1 | > 25
O=c1[nH]c(Nc2cc(Cl)cc(Cl)c2)nc2cc(O)ccc12 | > 25
Nc1ccc2c(=O)[nH]c(Nc3cc(Cl)cc(Cl)c3)nc2c1 | > 25
O=c1[nH]c(Nc2cccc(F)c2)nc2cc(Cl)ccc12 | 1.4
O=c1[nH]c(Nc2cc(O)cc(O)c2)nc2cc(Cl)ccc12 | > 25
O=c1[nH]c(Nc2cc(Cl)cc(Cl)c2)nc2cc(N3CCOCC3)ccc12 | > 25
O=c1[nH]c(N2CCCCC2)nc2cc(Cl)ccc12 | > 25
O=c1[nH]c(Nc2cc(F)cc(F)c2)nc2cc(O)ccc12 | > 25
O=c1[nH]c(Nc2cccc(C(F)(F)F)c2)nc2cc(Cl)ccc12 | 0.68
COc1cccc2nc(Nc3cc(Cl)cc(Cl)c3)[nH]c(=O)c12 | > 25
N#Cc1cccc(Nc2nc3cc(Cl)ccc3c(=O)[nH]2)c1 | 1.7
COc1cccc(Nc2nc3cc(Cl)ccc3c(=O)[nH]2)c1 | 11
Nc1ccc2c(=O)[nH]c(Nc3cc(F)cc(F)c3)nc2c1 | > 25

Tested on: not listed separately
Experiment: Selective index, ratio of CC50 for African green monkey Vero cells to IC50 for SARS-CoV-2 infected in African green monkey Vero cells
Conditions: not given

Structure (SMILES) | Ratio CC50/IC50
Cc1cc(C)c2nc(Nc3cc(F)cc(F)c3)[nH]c(=O)c2c1 | 1
CCCCNc1nc2cc(Cl)ccc2c(=O)[nH]1 | 1
O=c1[nH]c(Nc2ccc(F)cc2)nc2cc(Cl)ccc12 | 1
O=c1[nH]c(Nc2ccc(Cl)cc2Cl)nc2cc(Cl)ccc12 | 1
O=c1[nH]c(Nc2ccccc2F)nc2cc(Cl)ccc12 | 1
O=c1[nH]c(Nc2cccc(O)c2)nc2cc(Cl)ccc12 | 1
Cc1cc(C)c2nc(Nc3cc(Cl)cc(Cl)c3)[nH]c(=O)c2c1 | 1
O=c1[nH]c(Nc2cc(Cl)cc(Cl)c2)nc2cc(O)ccc12 | 1
Nc1ccc2c(=O)[nH]c(Nc3cc(Cl)cc(Cl)c3)nc2c1 | 1
O=c1[nH]c(Nc2cccc(F)c2)nc2cc(Cl)ccc12 | 18
O=c1[nH]c(Nc2cc(O)cc(O)c2)nc2cc(Cl)ccc12 | 1
O=c1[nH]c(Nc2cc(Cl)cc(Cl)c2)nc2cc(N3CCOCC3)ccc12 | 1
O=c1[nH]c(N2CCCCC2)nc2cc(Cl)ccc12 | 1
O=c1[nH]c(Nc2cc(F)cc(F)c2)nc2cc(O)ccc12 | 1
O=c1[nH]c(Nc2cccc(C(F)(F)F)c2)nc2cc(Cl)ccc12 | 37
COc1cccc2nc(Nc3cc(Cl)cc(Cl)c3)[nH]c(=O)c12 | 1
N#Cc1cccc(Nc2nc3cc(Cl)ccc3c(=O)[nH]2)c1 | 15
COc1cccc(Nc2nc3cc(Cl)ccc3c(=O)[nH]2)c1 | 2.3
Nc1ccc2c(=O)[nH]c(Nc3cc(F)cc(F)c3)nc2c1 | 1
